# Measurements reported in patent US20210196681A1, “SELECTIVE PRESENILIN-2 GAMMA-SECRETASE INHIBITORS” (UNIVERSITEIT MAASTRICHT, priority 2018, published 2021).
# Legend:
# [1] = tested on: oncogenic mutant Notch1 (ΔEGF-Notch1-L1594P-MYC) activity
# [2] = molecular target: T1, Presenilin 2 (Psen2) (Homo sapiens, UniProt P49810); experiment: Presenilin specific luciferase/cleavage reporter assay in PS1/2 DKO mEF reconstituted with Presenilin 2; type: cell-based; conditions: Psen2 reconstituted cells, compared to cleavage inhibition of the same compound for Psen1; FIG. 4
# T1 construct: expressed in transfected cells; host or cells: PS1/2 DKO mouse embryonic fibroblasts (mEF) reconstituted with Presenilin 2
# Experimental: Immunoblot on cell lysates of PS1/2 DKO cells, and PS1/2 DKO reconstituted with either Presenilin 1 or Presenilin 2 were provided. Blots were probed with antibodies for nicastrin, Presenilin 1 (C-terminal fragment), Presenilin 2 (C-terminal fragment), and β-actin (loading control) to verify the cell construct used for later experiments. Double knock out of PSEN1 and PSEN2 and reconstitution were successful.
# Cells were plated 24 hours prior to transfection in 6 wells plates (200.000 cells/well in 2 mL). Cells were transfected using linear polyethylenimin (P-PEI) and DMEM/f12. 2.3 μg Firefly luciferase reporter plasmids containing synthetic Gal4-binding sites (5xUAS FR-luc) were used per 6 well, as well as 150 ng herpes thymidine kinase-driven Renilla luciferase (here serving as a housekeeping gene, and thus normalizing yardstick) and 50 ng Histone-2B (H2B)-GFP (here serving as a control for transfection success). […] 24 h after transfection, […] were washed with PBS, lysed and measured following manufacturer's directions for the Dual Luciferase Reporter (DLRTM) Assay system (Promega, The Netherlands). Analysis was carried out using the FLUOstar microplate reader (BMG Labtech, Germany). […]
# T1 sequence (P49810 1-297 limits assumed): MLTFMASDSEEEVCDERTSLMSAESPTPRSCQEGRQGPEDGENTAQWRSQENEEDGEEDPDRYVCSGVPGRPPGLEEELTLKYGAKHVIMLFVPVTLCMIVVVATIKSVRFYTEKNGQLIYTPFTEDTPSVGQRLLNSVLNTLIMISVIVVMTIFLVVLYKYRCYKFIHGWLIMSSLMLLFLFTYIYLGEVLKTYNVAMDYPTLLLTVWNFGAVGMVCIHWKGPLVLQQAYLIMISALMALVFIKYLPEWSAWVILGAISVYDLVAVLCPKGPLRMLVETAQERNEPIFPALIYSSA
# T1 sequence (P49810 298-448 limits assumed): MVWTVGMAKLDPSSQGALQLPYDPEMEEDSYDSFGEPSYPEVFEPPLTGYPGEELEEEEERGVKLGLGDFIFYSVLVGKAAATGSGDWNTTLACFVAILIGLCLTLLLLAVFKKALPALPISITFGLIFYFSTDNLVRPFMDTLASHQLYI
# T1 sequence (P57716 34-708 partner limits assumed): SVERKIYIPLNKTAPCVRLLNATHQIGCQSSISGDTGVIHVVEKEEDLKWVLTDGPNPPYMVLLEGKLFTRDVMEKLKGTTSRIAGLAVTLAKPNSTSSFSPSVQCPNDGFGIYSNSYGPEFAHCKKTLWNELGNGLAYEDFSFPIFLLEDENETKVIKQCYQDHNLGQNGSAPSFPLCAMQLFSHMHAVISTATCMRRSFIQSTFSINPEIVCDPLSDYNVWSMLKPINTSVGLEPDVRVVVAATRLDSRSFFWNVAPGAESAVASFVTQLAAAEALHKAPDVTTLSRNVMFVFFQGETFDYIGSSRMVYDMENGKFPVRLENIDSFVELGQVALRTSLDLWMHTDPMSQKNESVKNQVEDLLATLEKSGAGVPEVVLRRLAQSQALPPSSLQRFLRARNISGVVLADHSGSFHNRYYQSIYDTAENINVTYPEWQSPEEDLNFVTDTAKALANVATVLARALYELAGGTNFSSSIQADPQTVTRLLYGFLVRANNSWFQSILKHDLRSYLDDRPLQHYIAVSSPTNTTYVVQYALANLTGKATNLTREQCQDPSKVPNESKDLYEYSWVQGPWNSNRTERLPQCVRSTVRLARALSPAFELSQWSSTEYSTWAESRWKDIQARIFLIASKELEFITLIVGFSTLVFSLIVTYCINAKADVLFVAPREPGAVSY
# T1 sequence (Q8BVF7 whole entry partner): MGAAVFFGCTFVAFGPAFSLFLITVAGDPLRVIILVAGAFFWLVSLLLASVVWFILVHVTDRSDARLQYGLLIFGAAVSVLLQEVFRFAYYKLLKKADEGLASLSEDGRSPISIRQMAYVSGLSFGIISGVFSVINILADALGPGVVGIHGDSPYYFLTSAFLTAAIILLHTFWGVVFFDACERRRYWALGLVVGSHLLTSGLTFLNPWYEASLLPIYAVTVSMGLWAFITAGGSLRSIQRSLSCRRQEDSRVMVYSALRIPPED
# T1 sequence (Q9CQR7 whole entry partner): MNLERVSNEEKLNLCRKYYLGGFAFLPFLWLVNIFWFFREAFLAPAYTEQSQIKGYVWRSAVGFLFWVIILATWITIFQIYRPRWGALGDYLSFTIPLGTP
Cleavage inhibition (Psen2 specificity) [2],Compound,Inhibition of mutant Notch1 transcriptional activity by CQ [1]
–,"CCN(CC)CCCC(C)Nc1ccnc2cc(Cl)ccc12 (centres unmarked) [CQ, Chloroquine]",most strongly inhibited
high percentage of cleavage inhibition,"CCC[C@H](NC(=O)[C@@H](O)c1cc(F)cc(F)c1)C(=O)Nc1cn(C(C)(C)CN(C)C)cn1 [SN262, (S)-2-((S)-2-(3,5-difluorophenyl)-2-hydroxyacetamido)-N-(1-(1-(dimethylamino)-2-methylpropan-2-yl)-1H-imidazol-4-yl)pentanamide]",–
